Test results from US10472341B2, “Bicyclic tetrahydrothiazepine derivatives useful for the treatment of neoplastic and/or infectious diseases” (APEIRON BIOLOGICS AG, priority 2015, dated 2019).

Test system: CD8 cells & tumor cell lines (K562, M21, CRL2505, MDA-MB-231, A549, TC71, MG63, RD, U138MG)
Assay: Isolated CD8 cells in co-culture with tumor cell lines of diverse origin: IFN-gamma, IL-2, granzyme
Format: cell-based, human
Protocol: Isolated PBMCs, NK cells or CD8 positive cells were plated in Xvivo medium at 1.5*10^5 cells per in 96 well culture plates in the presence of 0.3*10^4 tumor cells where indicated. Cytokine secretion was determined by ELISA, immune cell activation (using Beckman-Coulter Abs CD25-PC5, CD69-PC7), cell viability and numbers by flow cytometry (Beckman-Coulter FC500 or Gallios) using 7-AAD exclusion as criterion for living cells. PBMCs were isolated and incubated with and without compounds, either alone or in co-culture with different tumor cells.

Which results are given for `Cl.N[C@H]1CS(=O)(=O)c2cc(F)c(C(=O)NCCCC(F)(F)F)cc2N(Cc2ccc(Cl)cc2)C1=O` [Example 70, (3R)-3-amino-5-[(4-chlorophenyl)methyl]-8-fluoro-1,1,4-trioxo-N-(4,4,4-trifluoro-butyl)-2,3,4,5-tetrahydro-1λ^6,5-benzothiazepine-7-carboxamide hydrochloride]?
Granzyme (CD8 cells & A549, 0.1 μM): 0.04 ng/mL; IFN-gamma (CD8 cells & A549, 0.1 μM): 0.01 ng/mL; IL-2 (CD8 cells & A549, 0.1 μM): 0.00 ng/mL; Granzyme (CD8 cells & A549, 0.3 μM): 0.09 ng/mL; IFN-gamma (CD8 cells & A549, 0.3 μM): 0.03 ng/mL; IL-2 (CD8 cells & A549, 0.3 μM): 0.15 ng/mL; Granzyme (CD8 cells & A549, 1 μM): 0.10 ng/mL; IFN-gamma (CD8 cells & A549, 1 μM): 0.08 ng/mL; IL-2 (CD8 cells & A549, 1 μM): 0.36 ng/mL; Granzyme (CD8 cells & A549, 3 μM): 0.07 ng/mL; IFN-gamma (CD8 cells & A549, 3 μM): 0.07 ng/mL; IL-2 (CD8 cells & A549, 3 μM): 0.28 ng/mL; Granzyme (CD8 cells & A549, 10 μM): 0.16 ng/mL; IFN-gamma (CD8 cells & A549, 10 μM): 0.16 ng/mL; IL-2 (CD8 cells & A549, 10 μM): 0.59 ng/mL; Granzyme (CD8 cells & K562, 0.1 μM): 1.58 ng/mL; IFN-gamma (CD8 cells & K562, 0.1 μM): 6.97 ng/mL; IL-2 (CD8 cells & K562, 0.1 μM): 3.86 ng/mL; Granzyme (CD8 cells & K562, 0.3 μM): 2.38 ng/mL; IFN-gamma (CD8 cells & K562, 0.3 μM): 7.57 ng/mL; IL-2 (CD8 cells & K562, 0.3 μM): 3.20 ng/mL; Granzyme (CD8 cells & K562, 1 μM): 1.81 ng/mL; IFN-gamma (CD8 cells & K562, 1 μM): 11.23 ng/mL; IL-2 (CD8 cells & K562, 1 μM): 4.08 ng/mL; Granzyme (CD8 cells & K562, 3 μM): 3.91 ng/mL; IFN-gamma (CD8 cells & K562, 3 μM): 8.44 ng/mL; IL-2 (CD8 cells & K562, 3 μM): 3.72 ng/mL; Granzyme (CD8 cells & K562, 10 μM): 4.83 ng/mL; IFN-gamma (CD8 cells & K562, 10 μM): 8.26 ng/mL; IL-2 (CD8 cells & K562, 10 μM): 2.82 ng/mL; Granzyme (CD8 cells & M21, 0.1 μM): 0.24 ng/mL; IFN-gamma (CD8 cells & M21, 0.1 μM): 0.00 ng/mL; IL-2 (CD8 cells & M21, 0.1 μM): 0.39 ng/mL; Granzyme (CD8 cells & M21, 0.3 μM): 0.53 ng/mL; IFN-gamma (CD8 cells & M21, 0.3 μM): 0.02 ng/mL; IL-2 (CD8 cells & M21, 0.3 μM): 0.31 ng/mL; Granzyme (CD8 cells & M21, 1 μM): 0.41 ng/mL; IFN-gamma (CD8 cells & M21, 1 μM): 0.06 ng/mL; IL-2 (CD8 cells & M21, 1 μM): 0.67 ng/mL; Granzyme (CD8 cells & M21, 3 μM): 0.40 ng/mL; IFN-gamma (CD8 cells & M21, 3 μM): 0.03 ng/mL; IL-2 (CD8 cells & M21, 3 μM): 0.64 ng/mL; Granzyme (CD8 cells & M21, 10 μM): 0.50 ng/mL; IFN-gamma (CD8 cells & M21, 10 μM): 0.10 ng/mL; IL-2 (CD8 cells & M21, 10 μM): 0.47 ng/mL; Granzyme (CD8 cells & MDA-MB-231, 0.1 μM): 1.86 ng/mL; IFN-gamma (CD8 cells & MDA-MB-231, 0.1 μM): 10.72 ng/mL; IL-2 (CD8 cells & MDA-MB-231, 0.1 μM): 1.51 ng/mL; Granzyme (CD8 cells & MDA-MB-231, 0.3 μM): 3.40 ng/mL; IFN-gamma (CD8 cells & MDA-MB-231, 0.3 μM): 20.55 ng/mL; IL-2 (CD8 cells & MDA-MB-231, 0.3 μM): 2.14 ng/mL; Granzyme (CD8 cells & MDA-MB-231, 1 μM): 4.23 ng/mL; IFN-gamma (CD8 cells & MDA-MB-231, 1 μM): 22.31 ng/mL; IL-2 (CD8 cells & MDA-MB-231, 1 μM): 2.40 ng/mL; Granzyme (CD8 cells & MDA-MB-231, 3 μM): 5.20 ng/mL; IFN-gamma (CD8 cells & MDA-MB-231, 3 μM): 25.24 ng/mL; IL-2 (CD8 cells & MDA-MB-231, 3 μM): 3.21 ng/mL; Granzyme (CD8 cells & MDA-MB-231, 10 μM): 5.93 ng/mL; IFN-gamma (CD8 cells & MDA-MB-231, 10 μM): 24.22 ng/mL; IL-2 (CD8 cells & MDA-MB-231, 10 μM): 3.63 ng/mL; Granzyme (CD8 cells & MG63, 0.1 μM): 0.23 ng/mL; IFN-gamma (CD8 cells & MG63, 0.1 μM): 0.92 ng/mL; IL-2 (CD8 cells & MG63, 0.1 μM): 0.00 ng/mL; Granzyme (CD8 cells & MG63, 0.3 μM): 0.29 ng/mL; IFN-gamma (CD8 cells & MG63, 0.3 μM): 1.43 ng/mL; IL-2 (CD8 cells & MG63, 0.3 μM): 0.00 ng/mL; Granzyme (CD8 cells & MG63, 1 μM): 0.28 ng/mL; IFN-gamma (CD8 cells & MG63, 1 μM): 1.79 ng/mL; IL-2 (CD8 cells & MG63, 1 μM): 0.00 ng/mL; Granzyme (CD8 cells & MG63, 3 μM): 0.38 ng/mL; IFN-gamma (CD8 cells & MG63, 3 μM): 1.92 ng/mL; IL-2 (CD8 cells & MG63, 3 μM): 0.00 ng/mL; Granzyme (CD8 cells & MG63, 10 μM): 0.44 ng/mL; IFN-gamma (CD8 cells & MG63, 10 μM): 2.36 ng/mL; IL-2 (CD8 cells & MG63, 10 μM): 0.00 ng/mL; Granzyme (CD8 cells & RD, 0.1 μM): 0.09 ng/mL; IFN-gamma (CD8 cells & RD, 0.1 μM): 0.12 ng/mL; IL-2 (CD8 cells & RD, 0.1 μM): 0.00 ng/mL; Granzyme (CD8 cells & RD, 0.3 μM): 0.16 ng/mL; IFN-gamma (CD8 cells & RD, 0.3 μM): 0.45 ng/mL; IL-2 (CD8 cells & RD, 0.3 μM): 0.00 ng/mL; Granzyme (CD8 cells & RD, 1 μM): 0.20 ng/mL; IFN-gamma (CD8 cells & RD, 1 μM): 0.54 ng/mL; IL-2 (CD8 cells & RD, 1 μM): 0.00 ng/mL; Granzyme (CD8 cells & RD, 3 μM): 0.17 ng/mL; IFN-gamma (CD8 cells & RD, 3 μM): 0.65 ng/mL; IL-2 (CD8 cells & RD, 3 μM): 0.00 ng/mL; Granzyme (CD8 cells & RD, 10 μM): 0.30 ng/mL; IFN-gamma (CD8 cells & RD, 10 μM): 1.59 ng/mL; IL-2 (CD8 cells & RD, 10 μM): 0.00 ng/mL; Granzyme (CD8 cells & TC71, 0.1 μM): 0.06 ng/mL; IFN-gamma (CD8 cells & TC71, 0.1 μM): 0.04 ng/mL; IL-2 (CD8 cells & TC71, 0.1 μM): 0.58 ng/mL; Granzyme (CD8 cells & TC71, 0.3 μM): 0.08 ng/mL; IFN-gamma (CD8 cells & TC71, 0.3 μM): 0.11 ng/mL; IL-2 (CD8 cells & TC71, 0.3 μM): 0.97 ng/mL; Granzyme (CD8 cells & TC71, 1 μM): 0.10 ng/mL; IFN-gamma (CD8 cells & TC71, 1 μM): 0.14 ng/mL; IL-2 (CD8 cells & TC71, 1 μM): 1.25 ng/mL; Granzyme (CD8 cells & TC71, 3 μM): 0.10 ng/mL; IFN-gamma (CD8 cells & TC71, 3 μM): 0.27 ng/mL; IL-2 (CD8 cells & TC71, 3 μM): 1.14 ng/mL; Granzyme (CD8 cells & TC71, 10 μM): 0.15 ng/mL; IFN-gamma (CD8 cells & TC71, 10 μM): 0.38 ng/mL; IL-2 (CD8 cells & TC71, 10 μM): 1.57 ng/mL; Granzyme (CD8 cells & U138MG, 0.1 μM): 0.03 ng/mL; IFN-gamma (CD8 cells & U138MG, 0.1 μM): 0.00 ng/mL; IL-2 (CD8 cells & U138MG, 0.1 μM): 0.00 ng/mL; Granzyme (CD8 cells & U138MG, 0.3 μM): 0.04 ng/mL; IFN-gamma (CD8 cells & U138MG, 0.3 μM): 0.01 ng/mL; IL-2 (CD8 cells & U138MG, 0.3 μM): 0.00 ng/mL; Granzyme (CD8 cells & U138MG, 1 μM): 0.01 ng/mL; IFN-gamma (CD8 cells & U138MG, 1 μM): 0.02 ng/mL; IL-2 (CD8 cells & U138MG, 1 μM): 0.04 ng/mL; Granzyme (CD8 cells & U138MG, 3 μM): 0.03 ng/mL; IFN-gamma (CD8 cells & U138MG, 3 μM): 0.02 ng/mL; IL-2 (CD8 cells & U138MG, 3 μM): 0.02 ng/mL; Granzyme (CD8 cells & U138MG, 10 μM): 0.05 ng/mL; IFN-gamma (CD8 cells & U138MG, 10 μM): 0.06 ng/mL; IL-2 (CD8 cells & U138MG, 10 μM): 0.08 ng/mL; Granzyme (CD8 cells only, 0.1 μM): 0.05 ng/mL; IFN-gamma (CD8 cells only, 0.1 μM): 0.00 ng/mL; IL-2 (CD8 cells only, 0.1 μM): 0.00 ng/mL; Granzyme (CD8 cells only, 0.3 μM): 0.04 ng/mL; IFN-gamma (CD8 cells only, 0.3 μM): 0.00 ng/mL; IL-2 (CD8 cells only, 0.3 μM): 0.00 ng/mL; Granzyme (CD8 cells only, 1 μM): 0.05 ng/mL; IFN-gamma (CD8 cells only, 1 μM): 0.00 ng/mL; IL-2 (CD8 cells only, 1 μM): 0.00 ng/mL; Granzyme (CD8 cells only, 3 μM): 0.04 ng/mL; IFN-gamma (CD8 cells only, 3 μM): 0.00 ng/mL; IL-2 (CD8 cells only, 3 μM): 0.00 ng/mL; Granzyme (CD8 cells only, 10 μM): 0.05 ng/mL; IFN-gamma (CD8 cells only, 10 μM): 0.00 ng/mL; IL-2 (CD8 cells only, 10 μM): 0.00 ng/mL
